Source: the supplement of paper PMC11208160

test: recombinant barcode read abundance after kanamycin selection (control-corrected) (log10(CPM+1)); higher = more efficient recombination; sequences stand for … in AGTGCAGAGAAAATCGGCCAGTTTTCTCTGCCTGCAGTCCGCATGCCGT…AGATTTATGCAGCGGACTGCCTTTCTCCCAAAGTGATAAACCGGACAGTATCATGGACCGGTTTTCCCGGTAATCCGTATTTGCAAGGTTGGTTTCACT; site = the 11-nt target
Experimental: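 Pooled E. coli target-specificity screen for the IS621 bridge recombinase. Each library plasmid pairs an 11-nt target (CT core) with a bridge RNA whose target-binding loop (9-nt LTG + 4-nt RTG) is reprogrammed; the rest of the 177-nt WT IS621 bridge RNA scaffold is fixed. The plasmid is co-electroporated with a WT donor plasmid; recombinase is induced with 0.1 mM IPTG and recombinants are selected on kanamycin. Recombinant barcodes are sequenced, converted to CPM, averaged over two biological replicates and corrected by the unselected control CPM. Molecule = full bridge RNA written as DNA: LTG = specificity nt 1-9, RTG = reverse complement of specificity nt 8-11, in the WT scaffold.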
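Further: IS621 recombinase and bridge RNA in Escherichia coli cells.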

Row | Sequence | recombinant barcode read abundance (log10)
1 | ACAAACCCTTGGGTTCTAACCTGTTGCCT (site ACAAAGCCTAG) | 0.159
2 | ACAAACCCTTGGGTTCTAACCTGTTGCCT (site ACAAATCCTAG) | 0.0456
3 | ACAAAGCCTTGGGTTCTAACCTGTTGCCT (site ACAAAACCTAG) | 0.49
4 | ACAAAGCCTTGGGTTCTAACCTGTTGCCT (site ACAAACCCTAG) | 0.0556
5 | ACAAAGCCTTGGGTTCTAACCTGTTGCCT (site ACAAAGCCTAG) | 0.85
6 | ACAAAGCCTTGGGTTCTAACCTGTTGCCT (site ACAAATCCTAG) | 0.0552
7 | ACAAATACTTGGGTTCTAACCTGTTGCGG (site ACAAATACTCC) | 0.905
8 | ACAAATACTTGGGTTCTAACCTGTTGCGG (site CGTTCACCTAT) | 0.11
9 | ACAAGCCCTTGGGTTCTAACCTGTTGCCT (site AAAAGCCCTAG) | 0.189
10 | ACAAGCCCTTGGGTTCTAACCTGTTGCCT (site ACAAGCCCTAG) | 0.643
11 | ACAAGCCCTTGGGTTCTAACCTGTTGCCT (site AGAAGCCCTAG) | 0.0546
12 | ACAAGCCCTTGGGTTCTAACCTGTTGCCT (site ATAAGCCCTAG) | 0.0711
13 | ACAAGGCCTTGGGTTCTAACCTGTTGCCT (site ACAAGGCCTAG) | 0.16
14 | ACAAGGCCTTGGGTTCTAACCTGTTGCCT (site CCAAGGCCTAG) | 0.784
15 | ACAAGGCCTTGGGTTCTAACCTGTTGCCT (site GCAAGGCCTAG) | 0.126
16 | ACAAGGCCTTGGGTTCTAACCTGTTGCCT (site TCAAGGCCTAG) | 0.0644
17 | ACAATAGCTTGGGTTCTAACCTGTTGCCT (site ACAATACCTCG) | 0.0732
18 | ACAATAGCTTGGGTTCTAACCTGTTGCCT (site ACAATAGCTAG) | 1.64
19 | ACACAGACTTGGGTTCTAACCTGTTGCGC (site ACAAAGACTGC) | 0.174
20 | ACACAGACTTGGGTTCTAACCTGTTGCGC (site ACACAGACTGC) | 1.08
21 | ACACAGACTTGGGTTCTAACCTGTTGCGC (site ACAGAGACTGC) | 0.114
22 | ACACAGACTTGGGTTCTAACCTGTTGCGC (site ACATAGACTGC) | 0.00702
23 | ACACCCTCTTGGGTTCTAACCTGTTGCTT (site ACACCCTCTAA) | 2.5
24 | ACACCCTCTTGGGTTCTAACCTGTTGCTT (site CGACCCTCTAA) | 0.208
25 | ACAGAATCTTGGGTTCTAACCTGTTGCCT (site ACAGAATCTAG) | 1.69

Row | Sequence | recombinant barcode read abundance (log10)
26 | ACAGAATCTTGGGTTCTAACCTGTTGCCT (site ACAGGATCTAA) | 0.0318
27 | ACAGACGCTTGGGTTCTAACCTGTTGCCT (site ACAGACGCTAG) | 0.721
28 | ACAGACGCTTGGGTTCTAACCTGTTGCCT (site ACAGCCGCTAG) | 0.151
29 | ACAGACGCTTGGGTTCTAACCTGTTGCCT (site ACAGGCGCTAG) | 0.163
30 | ACAGACGCTTGGGTTCTAACCTGTTGCCT (site ACAGTCGCTAG) | 0.0906
31 | ACAGAGACTTGGGTTCTAACCTGTTGCTA (site ACAGAGACTGT) | 0.121
32 | ACAGAGACTTGGGTTCTAACCTGTTGCTA (site ACAGAGACTTA) | 1.35
33 | ACAGTAGCTTGGGTTCTAACCTGTTGCGG (site ACAGTAGCTCC) | 1.81
34 | ACAGTAGCTTGGGTTCTAACCTGTTGCGG (site ACAGTAGCTCG) | 0.248
35 | ACAGTGACTTGGGTTCTAACCTGTTGCCT (site ACAATGACTAG) | 1.23
36 | ACAGTGACTTGGGTTCTAACCTGTTGCCT (site ACAGTGACTAG) | 2.49
37 | ACAGTGGCTTGGGTTCTAACCTGTTGCGG (site ACAGTGGCTCC) | 1.53
38 | ACAGTGGCTTGGGTTCTAACCTGTTGCGG (site CTTCGCCCTAA) | 0.0955
39 | ACAGTGTCTTGGGTTCTAACCTGTTGCGG (site ACAATGTCTCC) | 1.37
40 | ACAGTGTCTTGGGTTCTAACCTGTTGCGG (site ACACTGTCTCC) | 0.0611
41 | ACAGTGTCTTGGGTTCTAACCTGTTGCGG (site ACAGTGTCTCC) | 2.77
42 | ACAGTGTCTTGGGTTCTAACCTGTTGCGG (site ACATTGTCTCC) | 0.324
43 | ACATAAGCTTGGGTTCTAACCTGTTGCTA (site ACATAAGCTTA) | 1.11
44 | ACATAAGCTTGGGTTCTAACCTGTTGCTA (site GGCGGCTCTAG) | 0.18
45 | ACATAGACTTGGGTTCTAACCTGTTGCGC (site ACAAAGACTGC) | 0.084
46 | ACATAGACTTGGGTTCTAACCTGTTGCGC (site ACACAGACTGC) | 0.858
47 | ACATAGACTTGGGTTCTAACCTGTTGCGC (site ACAGAGACTGC) | 0.168
48 | ACATAGACTTGGGTTCTAACCTGTTGCGC (site ACATAGACTGC) | 1.35
49 | ACATAGTCTTGGGTTCTAACCTGTTGCAG (site ACATAGTCTCT) | 1.01
50 | ACATAGTCTTGGGTTCTAACCTGTTGCAG (site CCTTAGTCTCT) | 0.0322

Row | Sequence | recombinant barcode read abundance (log10)
51 | ACATAGTCTTGGGTTCTAACCTGTTGCTG (site ACATAGTCTCA) | 0.71
52 | ACATAGTCTTGGGTTCTAACCTGTTGCTG (site ACTTAGTCTTA) | 0.0401
53 | ACATCTCCTTGGGTTCTAACCTGTTGCCT (site ACATCTCCTAG) | 0.503
54 | ACATCTCCTTGGGTTCTAACCTGTTGCCT (site CCATCTCCTAG) | 0.239
55 | ACATCTCCTTGGGTTCTAACCTGTTGCCT (site GCATCTCCTAG) | 0.0778
56 | ACATCTCCTTGGGTTCTAACCTGTTGCCT (site TCATCTCCTAG) | 0.0426
57 | ACATGATCTTGGGTTCTAACCTGTTGCCT (site ACAATATCTAG) | 0.0106
58 | ACATGATCTTGGGTTCTAACCTGTTGCCT (site ACATGATCTAG) | 1.04
59 | ACATTTCCTTGGGTTCTAACCTGTTGCCT (site AAATTTCCTAG) | 0.0832
60 | ACATTTCCTTGGGTTCTAACCTGTTGCCT (site ACATTTCCTAG) | 0.1
61 | ACATTTCCTTGGGTTCTAACCTGTTGCCT (site AGATTTCCTAG) | 0.138
62 | ACATTTCCTTGGGTTCTAACCTGTTGCCT (site ATATTTCCTAG) | 0.58
63 | ACCAGAGCTTGGGTTCTAACCTGTTGCCT (site ACAAGAGCTAG) | 0.131
64 | ACCAGAGCTTGGGTTCTAACCTGTTGCCT (site ACCAGAGCTAG) | 0.823
65 | ACCAGAGCTTGGGTTCTAACCTGTTGCCT (site ACGAGAGCTAG) | 0.0525
66 | ACCAGAGCTTGGGTTCTAACCTGTTGCCT (site ACTAGAGCTAG) | 0.528
67 | ACCAGGACTTGGGTTCTAACCTGTTGCCG (site ACCAGGACTCG) | 1.94
68 | ACCAGGACTTGGGTTCTAACCTGTTGCCG (site GAGCCTCCTAT) | 0.091
69 | ACCAGTACTTGGGTTCTAACCTGTTGCCT (site ACCAGTACTAG) | 0.0544
70 | ACCAGTACTTGGGTTCTAACCTGTTGCCT (site ACCCGTACTAG) | 0.0724
71 | ACCAGTACTTGGGTTCTAACCTGTTGCCT (site ACCGGTACTAG) | 0.0115
72 | ACCAGTACTTGGGTTCTAACCTGTTGCCT (site ACCTGTACTAG) | 0.664
73 | ACCATCACTTGGGTTCTAACCTGTTGCCT (site ACAAGCACTAG) | 0.103
